{
  "source": "patent US8318504B2",
  "about": "“MRP2 efflux pathway prognostic method” (priority 2009, dated 2012)",
  "key": {"NTCP": {"target": "T1, NTCP (Homo sapiens, UniProt Q14973)", "T1 construct": "the coding region ligated into pcDNA5/FRT; expressed in transfected cells", "T1 sequence (Q14973 1-349)": "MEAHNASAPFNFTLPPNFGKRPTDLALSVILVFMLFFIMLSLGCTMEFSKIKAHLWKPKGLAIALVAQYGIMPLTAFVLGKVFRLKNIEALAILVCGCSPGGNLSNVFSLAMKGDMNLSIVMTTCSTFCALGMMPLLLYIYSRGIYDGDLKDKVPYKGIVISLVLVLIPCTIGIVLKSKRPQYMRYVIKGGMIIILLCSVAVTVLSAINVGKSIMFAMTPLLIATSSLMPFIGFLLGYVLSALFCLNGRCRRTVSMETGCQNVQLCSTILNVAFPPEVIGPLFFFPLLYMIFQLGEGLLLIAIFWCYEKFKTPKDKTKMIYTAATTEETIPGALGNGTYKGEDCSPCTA", "assay": "Uptake of TC and CLF into CHO cells stably expressing NTCP", "type": "cell-based", "settings": "1 μmol/L CLF, 1 and 5 minutes, fluorescence analysis and quantitative determination", "experimental": "cDNA for human NTCP [Hagenbuch et al., J Clin Invest 1994 March; 93(3): 1326-1331] was cut with EcoRV and HindI and the coding region ligated into pcDNA5/FRT (Invitrogen, Life-Technologies, Carlsbad, Calif.). CHO FlpIn cells (Invitrogen, Life-Technologies) were transfected with the resulting construct using Lipofectamine® 2000 (Invitrogen, Life-Technologies). Stably transfected cells were selected with 550 μg Hygromycin-B in HAM-F12 medium (Gibco, Invitrogen, Life-Technologies). Transfected cells were cloned with the limiting dilution method. […] To further characterize the cloned cells, immunofluorescence localization of NTCP using a polyclonal antibody against NTCP [Kullak-Ublick G et al., Gastroenterology 1997 October; 113(4):1295-1305] was performed as described by Huber R D et al. [Am J Physiol Cell Physiol 2007 February; 292(2):[…]-[…]]. CHO cells expressing OATP1B1, OATP1B3 and OATP2B1 were described previously [Treiber et al., DMD 35:1400-1407, 2007]. For all transport experiments, cells grown on 3 cm culture dishes were cultured for 24 hours in media supplemented with 5 mmol/L sodium-butyrate to increase expression levels of transfected transporters [Palermo D P et al., J Biotechnol 1991 June; 19(1):35-47]. • Transport experiments with uptake of radioactively labeled substrates: These experiments were performed as described by Huber R D et al. […] Uptake was performed in the same buffers as for the radioactive substrates above. For visualization of CLF uptake, cells were immediately inspected with a Leica-DM-IRBE-inverted-microcope (Leica-Microsystems, Wetzlar, Germany) equipped with a Hamamatsu-ORKA-ER-camera (Hamamatsu-Photonoics, Japan). To determine uptake of CLF, cells were solubilized by the addition of 2 ml 1% (w/v) Triton-X-100. After complete solubilization, 1.5 ml was used to measure fluorescence in a Perkin-Elmer LS-5 luminescence-spectrometer set at λexe 486 nm (slit 10 nm) and λem 520 nm (slit 5 nm). Protein was determined with the bicinchoninic acid method using a kit from Interchim (Montfuçon, France). […]"}, "OATP2B1": {"target": "T2, OATP2B1 (Homo sapiens, UniProt O94956)", "T2 construct": "expressed in transfected cells; host or cells: CHO cells (stably transfected; Treiber et al. 2007)", "T2 sequence (O94956 1-709)": "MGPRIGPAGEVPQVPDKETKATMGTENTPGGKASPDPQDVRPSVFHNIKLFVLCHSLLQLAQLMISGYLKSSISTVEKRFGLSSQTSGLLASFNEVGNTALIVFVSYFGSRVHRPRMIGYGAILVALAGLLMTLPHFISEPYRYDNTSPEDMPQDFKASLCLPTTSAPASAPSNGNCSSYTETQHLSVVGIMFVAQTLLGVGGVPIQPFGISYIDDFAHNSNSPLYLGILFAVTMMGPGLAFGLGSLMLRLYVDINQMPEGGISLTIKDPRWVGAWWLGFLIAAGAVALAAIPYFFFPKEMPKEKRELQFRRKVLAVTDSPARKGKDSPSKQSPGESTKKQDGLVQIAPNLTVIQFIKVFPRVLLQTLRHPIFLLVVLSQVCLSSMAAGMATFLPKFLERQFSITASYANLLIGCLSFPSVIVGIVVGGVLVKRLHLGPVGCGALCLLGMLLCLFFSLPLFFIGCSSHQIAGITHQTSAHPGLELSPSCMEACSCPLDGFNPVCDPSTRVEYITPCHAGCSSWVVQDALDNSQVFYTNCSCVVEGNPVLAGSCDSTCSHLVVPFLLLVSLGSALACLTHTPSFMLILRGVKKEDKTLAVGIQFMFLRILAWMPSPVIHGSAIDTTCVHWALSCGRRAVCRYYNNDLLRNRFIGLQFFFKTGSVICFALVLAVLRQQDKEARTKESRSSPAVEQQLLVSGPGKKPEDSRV", "assay": "Uptake of CLF into CHO cells expressing OATP2B1", "type": "cell-based", "settings": "1 μmol/L CLF, 1 or 5 minutes", "experimental": "cDNA for human NTCP [Hagenbuch et al., J Clin Invest 1994 March; 93(3): 1326-1331] was cut with EcoRV and HindI and the coding region ligated into pcDNA5/FRT (Invitrogen, Life-Technologies, Carlsbad, Calif.). CHO FlpIn cells (Invitrogen, Life-Technologies) were transfected with the resulting construct using Lipofectamine® 2000 (Invitrogen, Life-Technologies). Stably transfected cells were selected with 550 μg Hygromycin-B in HAM-F12 medium (Gibco, Invitrogen, Life-Technologies). Transfected cells were cloned with the limiting dilution method. […] To further characterize the cloned cells, immunofluorescence localization of NTCP using a polyclonal antibody against NTCP [Kullak-Ublick G et al., Gastroenterology 1997 October; 113(4):1295-1305] was performed as described by Huber R D et al. [Am J Physiol Cell Physiol 2007 February; 292(2):[…]-[…]]. CHO cells expressing OATP1B1, OATP1B3 and OATP2B1 were described previously [Treiber et al., DMD 35:1400-1407, 2007]. […] After complete solubilization, 1.5 ml was used to measure fluorescence in a Perkin-Elmer LS-5 luminescence-spectrometer set at λexe 486 nm (slit 10 nm) and λem 520 nm (slit 5 nm). Protein was determined with the bicinchoninic acid method using a kit from Interchim (Montfuçon, France). […]"}, "[1]": {"assay": "Biliary secretion study of CLF in wild type, Abcc2-/- and Abcc3-/- mice", "type": "in vivo", "settings": "FVB, mouse, blood, intravenous, 100 μL of 1 mmol/L CLF, 120 minutes after administration, read-out: blood levels of CLF", "experimental": "(§1) Mice received 100 μL of 1 mmol/L CLF by injection in the tail vein. Data represent means±SD. Plasma levels are expressed in nmol/L and levels in urine, liver and bile as percentage of administered dose. Significance was tested using two-sided Student's t-test: *P<0.05 for Abcc2^-/- vs wild type mice. Data represent means±SD. Abcc2^-/- mice (against a Friend virus B-type (FVB) background) were bred at the National Cancer Institute (Amsterdam, The Netherlands). Production and characterization of the Abcc2^-/- mice was as described by […] et al. [J Pharmacol Exp Ther 2006 July; 318(1):319-327]. Wild type and Abcc3^-/- mice (against an FVB background) were bred at the animal institute of the Academic Medical Center. Production and characterization of the Abcc3^-/- mice was as described by Zelcer et al. [J Hepatol 2006 April; 44(4):768-775]. For biliary secretion studies, the gall bladder was cannulated with PE10 polyethylene tubing and 100 μL (1 mmol/L) CLF was injected in the tail vein. Bile was collected in 10 minutes fractions; liver and blood were harvested at the end of the experiment. Homogenised livers were deproteinised by adding 2 volumes of MeOH, and bile and blood samples were diluted with 0.1% Triton-X-100. The amount CLF was quantitated by measurement of fluorescence as described above."}, "Abcc2 and Abcc3": {"system": "Abcc2 and Abcc3", "assay": "Biliary secretion study of CLF in wild type, Abcc2-/- and Abcc3-/- mice", "type": "in vivo", "settings": "for cumulative biliary excretion of CLF / hepatic retention of CLF: 120 minutes after administration", "experimental": "as §1"}},
  "note": "Like-named read-outs stand apart in the source and are kept apart here.",
  "data": [
    {"smiles": "CC(CCC(=O)NC(CCCCNC(=S)Nc1ccc(-c2c3ccc(=O)cc-3oc3cc(O)ccc23)c(C(=O)O)c1)C(=O)O)C1CCC2C3C(O)CC4CC(O)CCC4(C)C3CC(O)C12C", "note": "(stereo not drawn) [CLF, cholyl lysyl fluorescein]", "values": [
      {"measurement": "sodium-dependent uptake of CLF mediated by NTCP", "setting": "NTCP", "result": "no sodium-dependent uptake"},
      {"measurement": "uptake of CLF into OATP2B1 cells", "setting": "OATP2B1", "result": "no uptake"},
      {"measurement": "concentration at 120 min", "setting": "[1]; Abcc2-/- mice", "result": "1310 ± 749", "unit": "nM"},
      {"measurement": "concentration at 120 min", "setting": "[1]; wt mice", "result": "83 ± 21", "unit": "nM"},
      {"measurement": "biliary output of CLF in Abcc3-/- mice in comparison with wild type mice", "setting": "Abcc2 and Abcc3; 100 μL 1 mmol/L CLF in the tail vein", "result": "not affected"},
      {"measurement": "CLF dose excreted into bile within 20 minutes", "setting": "Abcc2 and Abcc3; Abcc2-/- mice, 100 μL 1 mmol/L CLF in the tail vein", "result": "less than 2%"},
      {"measurement": "cumulative biliary excretion of CLF", "setting": "Abcc2 and Abcc3; Abcc2-/- mice", "result": "32 % of the administered dose"},
      {"measurement": "hepatic retention of CLF", "setting": "Abcc2 and Abcc3; Abcc2-/- mice", "result": "64 % of the administered dose"},
      {"measurement": "plasma and liver CLF contents in Abcc3-/- mice in comparison with wild type mice", "setting": "Abcc2 and Abcc3; after 2 hours", "result": "no differences"},
      {"measurement": "CLF dose excreted into bile within 20 minutes", "setting": "Abcc2 and Abcc3; wild type mice, 100 μL 1 mmol/L CLF in the tail vein", "result": "~70", "unit": "%"},
      {"measurement": "cumulative biliary excretion of CLF", "setting": "Abcc2 and Abcc3; wild type mice", "result": "85 % of the administered dose"},
      {"measurement": "hepatic retention of CLF", "setting": "Abcc2 and Abcc3; wt mice", "result": "1 % of the administered dose"}
    ]}
  ]
}
